Measured values as given in patent publication US4265912A, “Glaucine lactate salts” (priority 1979, dated 1981).
Counter-ions that a name gives are not always drawn. Like-named read-outs stand apart in the source and are kept apart here.

Experiments:
mice = type: in vivo; conditions: for stimulation and Straub tail: mouse, in vivo, 100 mg/kg; for mice jumping after naloxone: naloxone 100 mg/kg intraperitoneal after increasing doses on two consecutive days
Description: Physical dependency liability was evaluated in mice by the procedure of Saelens, et al., Arch. Int. Pharmacodynam, 190:213-218, 1971. In this procedure, mice are administered increasing doses of a test compound at intervals on two consecutive days. The last dosage on the second day is followed by intraperitoneal injection of the morphine antagonist, naloxone, at a dosage of 100 mg/kg, and the mice are observed for characteristic jumping behaviour indicative of opiate withdrawals or morphine antagonism.

[1] = solubility in cough syrup vehicle; type: physicochemical; conditions: cough syrup vehicle of Example 4
Description: A cough syrup vehicle formulation was prepared containing the following pharmaceutically-acceptable excipients: […]

[2] = stability of syrup with continuous exposure to light in amber and flint glass bottles; type: physicochemical; conditions: for assay after one month with continuous exposure to light, amber glass bottles / assay after one month with continuous exposure to light, flint glass bottles: ambient temperature, about 2000 Foot-candles, 24 hours/day, 43800 min; for assay after one month with continuous exposure to light, flint glass bottles: transparent (flint) glass
Description: In a procedure similar to that of Example 5, syrup formulations were prepared, placed in amber glass bottles and transparent (flint) glass bottles, and held under conditions of ambient temperature with continuous exposure to light. (About 2000 Foot-candles of combined fluorescent and incandescent light, for 24 hours/day.)

[3] = type: physicochemical; conditions: syrup; for percent of original concentration retained after one month: 0.6 percent d,l-glaucine lactate, 0.2 percent codeine phosphate or d,l-glaucine hydrobromide, 43800 min; for Percentage Remaining after 3 months at 40° C. / Percentage Remaining after 3 months at 55° C. / Percentage Remaining after 3 months at Ambient: 131400 min
Description: Stability of d,l-glaucine lactate was examined in the syrup vehicle of Example 4.
Syrups containing codeine phosphate, 0.2 percent, contained 97.5, 104.5 or 100 percent, respectively, after one month at ambient temperature, 40° C. or 55° C. […] After three months, the percentage amount of antitussive agent remaining was as shown below

[4] = tested on: guinea pigs (coughing, citric acid aerosol); assay: antitussive activity, citric acid aerosol test, oral; type: in vivo; conditions: Cavia porcellus, 1 h, 5 percent citric acid aerosol one hour after dosing
Description: Separate groups of guinea pigs were orally administered various doses of a test compound, or distilled water for a control group. One hour after oral dosing, the guinea pigs were exposed to a 5 percent aerosol of citric acid for a 10 minute test period. The number of cough responses produced during the last five minutes of exposure to the citric acid aerosol was recorded and the dosage effect to suppress coughing in 50 percent of the guinea pigs (ED50) was calculated. An antitussive effect was recorded for a guinea pig when its total number of coughs during the 5 minute test period were at least two standard deviation units below the mean number of coughs per guinea pig in the control group. […];

[5] = tested on: mouse (phenyl-p-quinone writhing); assay: analgesic activity, phenyl-p-quinone mouse writhing test; type: in vivo; conditions: oral, 30 minutes prior to phenyl-p-quinone challenge
Description: Test compounds were evaluated for analgesic activity in the phenyl-p-quinone mouse writhing test of Hendershot & Forsaith, J. Pharmacol. Exptl. Therap. 125(3) 237 (1959). The test compounds were administered orally 30 minutes prior to the phenyl-p-quinone challenge.

[6] = tested on: guinea pigs (coughing, citric acid aerosol); assay: antitussive activity, citric acid aerosol test, intraperitoneal injection; type: in vivo; conditions: Cavia porcellus, ip
Description: Separate groups of guinea pigs were orally administered various doses of a test compound, or distilled water for a control group. One hour after oral dosing, the guinea pigs were exposed to a 5 percent aerosol of citric acid for a 10 minute test period. The number of cough responses produced during the last five minutes of exposure to the citric acid aerosol was recorded and the dosage effect to suppress coughing in 50 percent of the guinea pigs (ED50) was calculated. An antitussive effect was recorded for a guinea pig when its total number of coughs during the 5 minute test period were at least two standard deviation units below the mean number of coughs per guinea pig in the control group. […]; In an operation similar to that of Example 2, test compounds were administered to guinea pigs by intraperitoneal injection, with one group of guinea pigs receiving distilled water as a control. ED50 's were calculated for antitussive activity in the citric acid aerosol test as described in Example 2. […];

[7] = stability of crystalline d,l-glaucine lactate on storage; type: physicochemical; conditions: crystalline solid, 2 months storage at 40° C., read-out: percent of original assay retained, crystalline solid

| SMILES | stimulation and Straub tail (mice) | mice jumping after naloxone (mice) | ED50 [4] | assay after one month with continuous exposure to light, amber glass bottles [2] | assay after one month with continuous exposure to light, flint glass bottles [2] | ED50 [5] | ED50 [6] | percent of original concentration retained after one month ([3]; 40° C.) | percent of original concentration retained after one month ([3]; 55° C.) | percent of original concentration retained after one month ([3]; ambient temperature) | Percentage Remaining after 3 months at 40° C. ([3]; 40° C.) | Percentage Remaining after 3 months at 55° C. ([3]; 55° C.) | Percentage Remaining after 3 months at Ambient [3] | also measured |
| --- | --- | --- | --- | --- | --- | --- | --- | --- | --- | --- | --- | --- | --- | --- |
| COc1cc2c(cc1OC)-c1c(OC)c(OC)cc3c1C(C2)N(C)CC3 (racemic) [d,l-Glaucine lactate (2:3)] | no Straub tail | no jumping behaviour in any of the ten mice |  |  |  |  |  |  |  |  |  |  |  |  |
| COc1cc2c(cc1OC)-c1c(OC)c(OC)cc3c1C(C2)N(C)CC3 (racemic) [d,l-glaucine hydrobromide] |  |  |  |  |  |  |  |  |  |  |  |  |  | solubility in cough syrup vehicle ([1]; hydrobromide): 0.3%; solubility in cough syrup vehicle per 5 milliliter dosage unit ([1]; hydrobromide): about 15 milligrams per 5 milliliter dosage unit; assay after one month with continuous exposure to light, amber glass bottles ([2]; hydrobromide): 84%; assay after one month with continuous exposure to light, flint glass bottles ([2]; hydrobromide): 74.5%; percent of original concentration retained after one month ([3]; 40° C., hydrobromide): 96%; percent of original concentration retained after one month ([3]; 55° C., hydrobromide): 89.5%; percent of original concentration retained after one month ([3]; ambient temperature, hydrobromide): 99%; Percentage Remaining after 3 months at 40° C. ([3]; 40° C., listed as d,l-Glaucine . HBr, hydrobromide): 93.3%; Percentage Remaining after 3 months at 55° C. ([3]; 55° C., listed as d,l-Glaucine . HBr, hydrobromide): 91.4%; Percentage Remaining after 3 months at Ambient ([3]; listed as d,l-Glaucine . HBr, hydrobromide): 100.8% |
| COc1cc2c(cc1OC)-c1c(OC)c(OC)cc3c1C(C2)N(C)CC3 (racemic) [d,l-glaucine lactate] |  |  | 63.4 mg/kg | 94% | 80.6% | 25.5 mg/kg | 7.9 mg/kg | 100.6% | 96.7% | 98.8% | 97.0% | 97.4% | 104.1% | solubility in cough syrup vehicle [1]: 2%; solubility in cough syrup vehicle per 5 milliliter dosage unit [1]: about 100 milligrams per 5 milliliter dosage unit; remaining at 1460 h [7]: > 99% |
| COc1ccc2c3c1O[C@H]1[C@@H](O)C=C[C@H]4[C@@H](C2)N(C)CC[C@@]341 [codeine phosphate] | Straub tail and stimulation | 2 of 6 | 86.6 mg/kg | 100% | 100% | 21.2 mg/kg | 10.9 mg/kg | 104.5% | 100% | 97.5% | 101.1% | 88.4% | 101.3% | stability in both types of container ([2]; amber and flint glass, light, one month): appeared stable in both types of container; total number of jumps after naloxone (mice; naloxone 100 mg/kg intraperitoneal): 23 jumps total |
| COc1cc2c(cc1OC)-c1c(OC)c(OC)cc3c1[C@H](C2)N(C)CC3 [d-glaucine hydrobromide] |  |  | 89 mg/kg |  |  | 34 mg/kg | 10 mg/kg |  |  |  |  |  |  |  |
